Experimental data from ChEMBL document CHEMBL1201862, “PubChem BioAssay data set” (2004).
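Five compound concentrations were applied to cells in 96-well plates for 48 hours; endpoints were derived by simple linear interpolation of the resulting dose-response curve. At the GI50, growth is halved.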 Activity calls are given as the source filed them. Cut-off read from the data, not from the text of the source: active = GI50 up to about 1.1 µM and inactive = higher.

What was measured:
Assay in all cases: NCI anticancer screen, dose series, 48 h
K562 = system: K562
HL-60 = system: HL-60
SNB-75 = system: SNB-75
RPMI-8226 = system: RPMI-8226
SN12C = system: SN12C
SF-268 = system: SF-268
HCT-15 = system: HCT-15
HCT-116 = system: HCT-116
DMS-114 = system: DMS-114
IGROV-1 = system: IGROV-1
MDA-MB-435 = system: MDA-MB-435
SK-MEL-28 = system: SK-MEL-28
UACC-257 = system: UACC-257
XF498 = system: XF498
T47D = system: T47D
M14 = system: M14
TK-10 = system: TK-10
NCI/ADR-RES = system: NCI/ADR-RES
NCI-H23 = system: NCI-H23
SW-620 = system: SW-620

| Compound | GI50 (K562) | GI50 (HL-60) | GI50 (SNB-75) | GI50 (RPMI-8226) | GI50 (SN12C) | GI50 (SF-268) | GI50 (HCT-15) [µM] | GI50 (HCT-116) | GI50 (DMS-114) | GI50 (IGROV-1) | GI50 (MDA-MB-435) | GI50 (SK-MEL-28) | GI50 (UACC-257) | GI50 (XF498) | GI50 (T47D) | GI50 (M14) | GI50 (TK-10) | GI50 (NCI/ADR-RES) | GI50 (NCI-H23) | GI50 (SW-620) |
| --- | --- | --- | --- | --- | --- | --- | --- | --- | --- | --- | --- | --- | --- | --- | --- | --- | --- | --- | --- | --- |
| Nc1ccc(C(=O)N/C(=C\c2cccc([N+](=O)[O-])c2)c2nc3c(O)nc(S)nc3[nH]2)cc1 | > 100 µM (inactive) | > 100 µM (inactive) | 6.61 µM (inactive) | > 100 µM (inactive) | > 88.7 µM (inactive) | 25.9 µM (inactive) | > 100 | 81.3 µM (inactive) | > 86.3 µM (inactive) | 55.1 µM (inactive) | > 100 µM (inactive) | > 100 µM (inactive) | > 100 µM (inactive) | 16.9 µM (inactive) | 44.2 µM (inactive) | > 100 µM (inactive) | > 79.4 µM (inactive) | > 100 µM (inactive) | > 100 µM (inactive) | > 100 µM (inactive) |
| CC(=O)NNc1nc(C)c(C(=O)NNC(=O)C(=O)Nc2nc3ccc([N+](=O)[O-])cc3s2)s1 | 25 µM (inactive) | 36.8 µM (inactive) | 29.4 µM (inactive) | 30.5 µM (inactive) | 68.2 µM (inactive) | 49.1 µM (inactive) | > 68.1 | > 62.5 µM (inactive) | 24.4 µM (inactive) | 36.9 µM (inactive) | 60.4 µM (inactive) | 65.2 µM (inactive) | 77.8 µM (inactive) | 25 µM (inactive) | 22.6 µM (inactive) | > 67.8 µM (inactive) | 50.4 µM (inactive) | 53.5 µM (inactive) | 44.1 µM (inactive) | > 65.9 µM (inactive) |
| C=C1C(=O)OC2CC(C)C3C=CC(=O)C3CC12 (stereo not drawn) | 1.46 µM (inactive) | 0.891 µM (active) | 5.51 µM (inactive) | 1.71 µM (inactive) | 2.02 µM (inactive) | 2.55 µM (inactive) | 1.85 | 1.26 µM (inactive) | 2.44 µM (inactive) | 3.62 µM (inactive) | 3.31 µM (inactive) | 1.68 µM (inactive) | 2.02 µM (inactive) | 1.63 µM (inactive) | 2.34 µM (inactive) | 1.62 µM (inactive) | 3.16 µM (inactive) | – | 1.83 µM (inactive) | 0.998 µM (active) |
| CC1CC2(S(=O)(=O)c3ccccc3)ON1CC2S(=O)(=O)c1ccccc1 (stereo not drawn) | > 100 µM (inactive) | > 100 µM (inactive) | > 100 µM (inactive) | > 100 µM (inactive) | > 100 µM (inactive) | > 100 µM (inactive) | > 100 | > 100 µM (inactive) | > 100 µM (inactive) | > 100 µM (inactive) | – | > 100 µM (inactive) | > 100 µM (inactive) | > 100 µM (inactive) | – | > 100 µM (inactive) | > 100 µM (inactive) | – | > 100 µM (inactive) | > 100 µM (inactive) |
| CCCC(=O)c1c(NOC2OCC(OC(C)=O)C(OC(C)=O)C2OC(C)=O)nc(OC)n(C)c1=O (stereo not drawn) | 17.4 µM (inactive) | 0.498 µM (active) | > 100 µM (inactive) | > 100 µM (inactive) | > 100 µM (inactive) | > 100 µM (inactive) | > 100 | > 100 µM (inactive) | > 100 µM (inactive) | > 100 µM (inactive) | – | > 100 µM (inactive) | > 100 µM (inactive) | > 100 µM (inactive) | – | > 100 µM (inactive) | > 100 µM (inactive) | – | > 100 µM (inactive) | > 100 µM (inactive) |
